From ChEMBL document CHEMBL5226378, “Transformation of Renieramycin M into Renieramycins T and S by Intramolecular Photoredox Reaction of 7-Methoxy-6-methyl-1,2,3,4-tetrahydroisoquinoline-5,8-dione Derivatives” (J Nat Prod, 2023)

Columns and labels:
DU-145 = assay: Cytotoxicity against human DU-145 cells assessed as inhibition of cell growth incubated for 4 days by CCK-8 assay; format: functional, cell-based; conditions: DU-145, 96 h
HCT-116 = assay: Cytotoxicity against human HCT-116 cells assessed as inhibition of cell growth incubated for 4 days by CCK-8 assay; format: functional, cell-based; conditions: HCT-116, 96 h

| Compound | IC50 (DU-145) | IC50 (HCT-116) |
| --- | --- | --- |
| C/C=C(/C)C(=O)OC[C@H]1c2c(c(OC(C)=O)c(C)c3c2OCO3)C[C@H]2[C@H]3C4=C(C[C@@H]([C@H](C#N)N12)N3C)C(=O)C(C)=C(OC)C4=O | 32 nM | 32 nM |
| C/C=C(/C)C(=O)OC[C@H]1c2c(c(O)c(C)c3c2OCO3)C[C@H]2[C@H]3C4=C(C[C@@H]([C@H](C#N)N12)N3C)C(=O)C(C)=C(OC)C4=O | 50 nM | 82 nM |
| COC1=C(C)C(=O)C2=C(C1=O)[C@@H]1[C@@H]3Cc4c(OC(C)=O)c(C)c5c(c4[C@H](CNC(=O)C(C)=O)N3[C@@H](C#N)[C@H](C2)N1C)OCO5 | 6 nM | 27 nM |
| COC1=C(C)C(=O)C2=C(C1=O)[C@@H]1[C@@H]3CC4=C(C(=O)C(O)=C(C)C4=O)[C@H](CNC(=O)C(C)=O)N3[C@@H](C#N)[C@H](C2)N1C | 680 nM | 1200 nM |
| C/C=C(/C)C(=O)OC[C@H]1c2c(c(O)c(C)c3c2OCO3)C[C@H]2CN(C)C[C@H](C#N)N21 | > 20000 nM | > 20000 nM |
| COC1=C(C)C(=O)C2=C(C1=O)[C@@H]1[C@@H]3Cc4c(O)c(C)c5c(c4[C@H](CNC(=O)C(C)=O)N3[C@@H](C#N)[C@H](C2)N1C)OCO5 | 140 nM | 230 nM |
| C/C=C(/C)C(=O)OC[C@H]1C2=C(C[C@H]3CN(C)C[C@H](C#N)N31)C(=O)C(C)=C(OC)C2=O | 7300 nM | 2200 nM |
| C/C=C(/C)C(=O)OC[C@H]1C2=C(C[C@H]3[C@H]4C5=C(C[C@@H]([C@H](C#N)N13)N4C)C(=O)C(C)=C(OC)C5=O)C(=O)C(C)=C(OC)C2=O [RENIERAMYCIN M] | 4 nM | 18 nM |
| C/C=C(/C)C(=O)OC[C@H]1C2=C(C[C@H]3[C@H]4C5=C(C[C@@H]([C@H](C#N)N13)N4C)C(=O)C(C)=C(OC)C5=O)C(=O)C(C)=C(O)C2=O [RENIERAMYCIN S] | 72 nM | 160 nM |
| COC1=C(C)C(=O)C2=C(C1=O)[C@@H]1[C@@H]3CC4=C(C(=O)C(OC)=C(C)C4=O)[C@H](CNC(=O)C(C)=O)N3[C@@H](C#N)[C@H](C2)N1C [SAFRAMYCIN A] | 8 nM | 20 nM |
